Assay results: US5292737A, “N,N'-bis(sulfonamido)-2-amino-4-iminonaphthalen-1-ones and N,N'-bis(amido)-2-amino-4-iminonaphthalen-1-ones” (Sphinx Pharmaceuticals Corporation, priority 1992, dated 1994)

Tests used:
[1] = tested on: MCF-7 human breast tumor cell line; test: Human Tumor Cell Growth Inhibition (3H-thymidine incorporation); format: cell-based
Description: MCF-7 a human breast tumor cell line was obtained from the National Cancer Institute, Frederick, Md. Tumor cells were trypsinized with 0.05% trypsin obtained from GIBCO (Grand Island Biological Co. Laboratories, Grand Island, N.Y.), counted with a hemacytometer and seeded at a concentration of 7,500 cells/well in a 96 well microtiter plate and allowed to attach to the surface overnight. To determine a concentration response, test agents were serially diluted an […] added at 2× final concentration to quadruplicate cultures to bring the total volume of each well to […]. The microtiter plate was then incubated at 37° C., 5% CO2 for 24 hrs with ^3 H-thymidine added at a concentration of 0.5 mCi/well in […] of 0.05% trypsin (GIBCO) was added to each well. Cells were checked microscopically to determine detachment from surfaces, and plates were harvested with a cell harvester (PHD, Cambridge Technology, Inc.). Filter paper corresponding to wells were placed in scintillation vials and counted to determine the amount ^3 H-thymidine incorporated by the cells. Counts per minute (CPM) of quadruplicate cultures were averaged and a percent of control calculated for each test agent concentration by the following formula: [formula]
The IC50 or concentration necessary to inhibit the proliferation of cells by 50% compared to control, of each test agent was determined by plotting % control vs log concentration for each dilution and then linear forecasting the 50% control value onto the X axis on a Quattro Pro computer program. Only regression values with a correlation coefficient greater then 0.9 were considered acceptable.

[2] = tested on: normal human epidermal keratinocyte (NHEK) cells; test: Human Keratinocyte Inhibition (3H TdR Assay); format: cell-based; conditions: 24 h incubation, 3H-thymidine
PKC isoenzyme βII = molecular target: T1, PKC isoenzyme βII (Homo sapiens, UniProt P05771); test: Protein kinase C inhibition assay, PKC isoenzyme βII; format: biochemical; conditions: read-out: IC50 PKC βII
T1 construct: made in house; host or cells: baculovirus-insect cell expression system
T1 sequence (P05771 1-673 isoform P05771-2): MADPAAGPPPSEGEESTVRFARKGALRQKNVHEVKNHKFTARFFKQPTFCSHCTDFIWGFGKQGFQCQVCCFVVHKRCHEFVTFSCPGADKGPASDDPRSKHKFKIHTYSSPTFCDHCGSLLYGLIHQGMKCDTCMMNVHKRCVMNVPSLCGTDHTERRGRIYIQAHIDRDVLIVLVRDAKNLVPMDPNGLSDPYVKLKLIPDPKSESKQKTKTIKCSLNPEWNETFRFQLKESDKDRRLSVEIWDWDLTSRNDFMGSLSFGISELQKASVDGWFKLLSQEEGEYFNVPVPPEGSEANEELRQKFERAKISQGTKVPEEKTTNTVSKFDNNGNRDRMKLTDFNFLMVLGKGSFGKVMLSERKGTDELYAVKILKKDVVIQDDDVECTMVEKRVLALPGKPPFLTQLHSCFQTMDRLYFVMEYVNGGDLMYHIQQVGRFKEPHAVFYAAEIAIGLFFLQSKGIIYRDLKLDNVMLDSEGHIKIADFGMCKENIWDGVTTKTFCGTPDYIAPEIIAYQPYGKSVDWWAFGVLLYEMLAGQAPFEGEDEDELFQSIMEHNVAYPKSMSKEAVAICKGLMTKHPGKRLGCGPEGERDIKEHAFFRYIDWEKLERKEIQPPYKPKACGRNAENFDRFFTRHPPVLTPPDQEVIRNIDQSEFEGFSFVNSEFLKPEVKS
Outline: (§1)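 Lipid vesicles of phosphatidylserine and DAG were co-sonicated and used below saturating levels. Compounds were added at four final concentrations (1, 10, 50, 150 μM), and the reaction was started with insect-cell-expressed enzyme, then stopped after 10 min with TCA. Substrate phosphorylation was counted on glass fiber filters to give IC50 values.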

PKC isoenzyme α = molecular target: T2, PKC isoenzyme α (Homo sapiens, UniProt P17252); test: Protein kinase C inhibition assay, PKC isoenzyme α; format: biochemical; conditions: read-out: IC50 PKC α
T2 construct: made in house; host or cells: baculovirus-insect cell expression system
Outline: as §1

PKC isoenzyme ζ = molecular target: T3, PKC isoenzyme ζ (Homo sapiens, UniProt Q05513); test: Protein kinase C inhibition assay, PKC isoenzyme ζ; format: biochemical; conditions: read-out: IC50 PKC .zeta.
T3 construct: made in house; host or cells: baculovirus-insect cell expression system
T3 sequence (Q05513 1-592): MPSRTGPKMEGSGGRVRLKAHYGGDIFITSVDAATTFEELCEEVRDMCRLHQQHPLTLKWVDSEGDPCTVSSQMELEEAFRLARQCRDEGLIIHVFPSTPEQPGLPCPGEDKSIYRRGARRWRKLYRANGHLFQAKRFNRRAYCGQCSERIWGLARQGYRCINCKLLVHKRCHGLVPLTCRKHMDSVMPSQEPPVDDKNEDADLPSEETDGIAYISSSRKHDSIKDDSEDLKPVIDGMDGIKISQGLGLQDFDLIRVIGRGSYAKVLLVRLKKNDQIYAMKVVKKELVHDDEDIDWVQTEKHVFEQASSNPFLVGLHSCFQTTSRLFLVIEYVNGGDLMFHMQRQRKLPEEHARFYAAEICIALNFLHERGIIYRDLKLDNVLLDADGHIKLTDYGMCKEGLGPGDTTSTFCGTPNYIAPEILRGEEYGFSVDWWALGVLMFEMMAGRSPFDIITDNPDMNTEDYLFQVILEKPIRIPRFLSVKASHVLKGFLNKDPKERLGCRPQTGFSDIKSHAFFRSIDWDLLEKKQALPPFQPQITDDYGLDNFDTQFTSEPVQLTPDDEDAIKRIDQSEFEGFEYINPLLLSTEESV
Outline: as §1

[3] = Homo sapiens, MCF7, MCF-7, 24 hrs

Structure (SMILES) | IC50 [1, 3] | IC50 [2] | IC50 (PKC isoenzyme βII) | IC50 (PKC isoenzyme α) | IC50 (PKC isoenzyme ζ) | IC50 ([2]; Homo sapiens) | IC50 ([1]; MCF-7, 24 hrs)
O=C1C(Nc2ccc(S(=O)(=O)NCc3ccccn3)cc2)=CC(=Nc2ccc(S(=O)(=O)NCc3ccccn3)cc2)c2ccccc21 [Compound 3n] | 1.02 µM | 1.1 µM | 141 µM | 75 µM | > 150 µM | – | –
Cc1cc(C)nc(NC(=O)c2ccc(N=C3C=C(Nc4ccc(C(=O)Nc5nc(C)cc(C)n5)cc4)C(=O)c4ccccc43)cc2)n1 [Compound 3ai] | 0.03 µM | – | 101 µM | 56 µM | > 150 µM | 0.16 µM | –
COc1cc(NS(=O)(=O)c2ccc(N=C3C=C(Nc4ccc(S(=O)(=O)Nc5cc(OC)cc(OC)c5)cc4)C(=O)c4ccccc43)cc2)cc(OC)c1 [Compound 3af] | 0.83 µM | – | 143 µM | 102 µM | > 150 µM | < 0.39 µM | –
O=C1C(Nc2ccc(S(=O)(=O)Nc3cnc4ccccc4n3)cc2)=CC(=Nc2ccc(S(=O)(=O)Nc3cnc4ccccc4n3)cc2)c2ccccc21 [Compound 6m] | – | < 0.39 µM | 23 µM | 9 µM | 9 µM | – | 19 µM
COc1ccc(NS(=O)(=O)c2ccc(N=C3C=C(Nc4ccc(S(=O)(=O)Nc5ccc(OC)nn5)cc4)C(=O)c4ccccc43)cc2)nn1 [Compound 6j] | – | 0.82 µM | 47 µM | 106 µM | 49 µM | – | 10.9 µM
Cc1cc(C)nc(NC(=O)c2ccc(N=C3C=C(Nc4ccc(C(=O)Nc5cc(C)cc(C)n5)cc4)C(=O)c4ccccc43)cc2)c1 [Compound 3ah] | 1.4 µM | – | 145 µM | 136 µM | > 150 µM | 1.4 µM | –
Cc1cc(C)nc(NS(=O)(=O)c2ccc(N=C3C=C(Nc4ccc(S(=O)(=O)Nc5nc(C)cc(C)n5)cc4)C(=O)c4ccccc43)cc2)n1 [Compound 6c] | – | 0.04 µM | 14 µM | 7 µM | 132 µM | – | 15.5 µM
Cc1cc(C)nc(NS(=O)(=O)c2cc(N=C3C=C(Nc4ccc(C)c(S(=O)(=O)Nc5cc(C)cc(C)n5)c4)C(=O)c4ccccc43)ccc2C)c1 [Compound 6ag] | – | – | 28 µM | 22 µM | > 150 µM | 0.5 µM | 1.8 µM
Cc1cc(C)nc(NS(=O)(=O)c2cccc(N=C3C=C(Nc4cccc(S(=O)(=O)Nc5cc(C)cc(C)n5)c4)C(=O)c4ccccc43)c2)c1 [Compound 3ae] | 4.8 µM | – | 52 µM | 31 µM | > 150 µM | < 0.39 µM | –
O=C1C(Nc2ccc(S(=O)(=O)Nc3cnc4ccccc4n3)cc2)=CC(=Nc2ccc(S(=O)(=O)Nc3cnc4ccccc4n3)cc2)c2ccccc21 [Compound 3m] | 17.9 µM | – | 22 µM | 8 µM | 28 µM | 0.4 µM | –
